Drawing on PubChem BioAssay (NCI), this text covers TGI and GI50 for 41 molecules.

What all share (assay): NCI anticancer screen, dose series, 48 h
For assay [1], the system named is DLD-1 colon.
Assay [2] deals with DMS 114 small cell lung.
The test system of assay [3] is DMS 273 small cell lung.
Assay [4] concerns KM20L2 colon.
Assay [5] deals with LXFL 529 NSCLC.
Assay [6] relates to RXF-631 renal.
For assay [7], the system named is SNB-78 CNS.
Assay [8] relates to XF 498 CNS.
Assay [9] relates to MDA-N.

SMILES strings stand for the structures. Where “and” joins values, the source holds several entries; their conditions need not be identical. Identical values can stand only once.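 Interpolation was linear, between the two tested concentrations surrounding the appropriate level; five concentrations were tested over 48 hours in 96-well plates. GI50 marks 50% less growth. TGI: concentration producing complete growth inhibition.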

Turning to `C/C(CCc1ccccc1)=N\NC(N)=S`, the TGI in assay [1], in assay [2], in [3], in assay [4], in assay [5] and in [6] was above 100 µM throughout. Further, the TGI in assay [7] and in assay [8] was above 100 µM throughout.

For `CCOC(=O)c1cc(/C=C/C(C)=C/C(=O)OC)oc1C`, the TGI in assay [1], in assay [2], in assay [4], in [5], in assay [7] and in [8] was above 100 µM each time.

`CCC[n+]1cc2cc(OC)c(OC)cc2c2c1-c1cc3c(cc1C2)OCO3`: in [9], the GI50 was 2.83 µM and the TGI worked out at 11 µM.

As to `COC(=O)c1ccccc1NC(=O)C(=O)NNC(=O)c1ccncc1`, the TGI in assay [1], in assay [2], in assay [3], in assay [4], in [5] and in assay [6] was above 100 µM each time. The TGI in assay [8] was above 100 µM.

As to `C[C@]12CCCC(=O)C1(O)C[C@H](C(=O)O)CC2` (stereo partly drawn), the TGI in assay [1], in assay [2], in [3], in assay [4], in assay [5] and in [6] was above 100 µM throughout. The molecule also registered a TGI in [8] above 100 µM.

With `CCOC(=O)/C=C1\CCCC12OCCO2`, the TGI in [1], in assay [2], in [3], in [4], in assay [5] and in assay [7] was above 100 µM each time.

`CC[O-].CC[O-].O=S(=O)([O-])c1ccc([O-])c2ncccc12.O=S(=O)([O-])c1ccc([O-])c2ncccc12.[Ti+4]`: the GI50 in assay [1] was 91.1 µM; in assay [2], 74.7 µM; in assay [3], 78.1 µM; in assay [4] it was 39.7 µM; in [5], 39.6 µM; in assay [7] it was above 100 µM. Besides, the TGI in assay [1], in assay [2], in assay [3], in assay [4], in assay [5] and in [7] was above 100 µM throughout.

Take `COC1OC(CO)C(O)C1N` (stereo not drawn): the TGI in assay [1], in assay [2], in assay [4], in [5], in assay [6] and in assay [7] was above 100 µM in each case.

In assay [9], `COc1ccc(-c2oc3c(OC)c(OC)c(OC)c(OC)c3c(=O)c2OC)cc1OC` displayed a TGI above 100 µM.

`CC1C(=O)OCC2=CCN3CCC(OC(=O)C(C)C1(C)O)C23` (stereo not drawn) came in with a TGI in assay [9] above 100 µM.

On to `CCOP(=O)(OCC)OC(C#N)c1ccc(-c2ccccc2)cc1` (stereo not drawn), for which the TGI in assay [1] was 36.9 µM; in [2] it was 29.6 µM; in assay [3], 27.5 µM; in assay [4], above 100 µM; in assay [5], 32 µM; in assay [7] it was above 100 µM. This molecule registered a TGI in assay [8] of 50.1 µM.

In assay [9], `O=c1cccc(C2CC(CO)C3CCCCN3C2)[nH]1` (stereo not drawn) showed a TGI above 100 µM.

`Cc1ccccc1C1=C(C(=O)Nc2ccc(Cl)c(Cl)c2)NC(=S)NC1N` (stereo not drawn): the TGI in assay [1], in assay [2], in assay [3], in assay [4], in assay [5] and in assay [6] was above 100 µM each time. The TGI in assay [7] and in [8] was above 100 µM in each case.

In the case of `NC(N)=NCCC1OC(=O)C2=C1c1c(O)ccc3nccc(c13)O2` (stereo not drawn), in [9], the GI50 is above 100 µM and the TGI was above 100 µM.

`CC(CCC(=O)O)C(=O)O` (stereo not drawn) displayed a TGI in assay [9] above 100 µM.

Regarding `CN(C)CC1CCC/C1=N\O` (stereo not drawn), the TGI in assay [1], in [3], in [4], in assay [5] and in assay [7] was above 100 µM throughout.

On to `Cc1ccc(-c2cc(-c3ccco3)c(C#N)c(=O)n2C2OC(OC(=O)c3ccccc3)C(OC(=O)c3ccccc3)C2OC(=O)c2ccccc2)cc1` (stereo not drawn), for which the TGI in assay [1], in assay [2], in assay [3], in [4], in assay [5] and in assay [6] was above 100 µM each time. Besides, in [7], the TGI is above 100 µM.

As for `C/C(=N\N(c1ccccc1)c1ccccc1)c1c(O)cc(C)oc1=O`, the TGI in assay [1], in assay [4], in assay [5] and in assay [7] was above 100 µM in each case.

As for `COC(=O)C(CC(=O)Nc1ccc(C)cc1)C(=O)C(=O)Nc1ccccc1C(C)C` (stereo not drawn), the TGI in [1], in assay [2], in [3], in assay [4], in assay [5] and in assay [7] was above 100 µM throughout. Besides, the TGI in assay [8] was above 100 µM.

For the molecule `CCN(CC)C(=S)SC`, the TGI in [9] was above 100 µM.

With `CC(=O)OCC(OC(C)=O)C(OC(C)=O)C(OC(C)=O)C(=O)CNn1c(-c2ccccc2Cl)nc2ccccc2c1=O` (stereo not drawn), the TGI in assay [2], in assay [3], in [4], in [5] and in assay [7] was above 100 µM throughout.

As to `Nc1ccc(C(=O)CC(N)C(=O)O)cc1O` (stereo not drawn), in [9], the TGI is above 100 µM.

`COc1ccc(/C=C2\CCCC(C(NO)c3ccc(OC)cc3)C2=NO)cc1` (stereo not drawn): the TGI in assay [1], in [2], in [3], in assay [4], in assay [5] and in assay [6] was above 100 µM throughout. Moreover, the TGI in assay [7] is above 100 µM.

Turning to `CCCCN(CCCC)c1c([N+](=O)[O-])c(=O)nc2ccccn12`, the TGI in [1] is above 100 µM; in assay [2] it was 49.6 µM; in assay [4], above 100 µM; in assay [5] it was above 100 µM; in assay [6], 79.8 µM; in [7] it was above 100 µM. For the same molecule, the TGI in assay [8] is 79.6 µM.

`COc1ccc(N2C(=O)[C@H]3CC(C)c4c([nH]c5ccccc45)[C@H]3C2=O)cc1` (stereo partly drawn): the TGI was above 41.5 µM in [1]; 7.32 µM in [2]; 17.2 µM in assay [3]; 12.7 µM in [4]; 26.8 µM in assay [5]; 3.4 µM in assay [9]. The TGI in assay [7] was above 59.5 µM; in assay [8], 22.4 µM.

Take `Cc1cccc(C)c1NC(=O)C1C(=O)N(c2c(C)cccc2C)C(=O)/C1=N\NC(N)=S` (stereo not drawn): the TGI in [1], in assay [2], in assay [4], in assay [5] and in assay [7] was above 100 µM in each case.

Consider `Cc1cc(C)c(C(=O)c2no[n+]([O-])c2C(=O)c2c(C)cc(C)c(Br)c2C)c(C)c1Br`, for which the TGI in assay [1] amounted to 30.7 µM; in [2], 23.4 µM; in [3], 45.1 µM; in assay [4] it was 32.9 µM; in [5], 23.7 µM; in [6] it was 35.7 µM. This molecule also had a TGI in assay [7] of 70.8 µM.

Turning to `CC1=C(C(=O)Nc2cccc(Cl)c2)C(c2ccccc2F)C(C(=O)Nc2cccc(Cl)c2)=C(C)N1`, the TGI in [1] is 28.8 µM; in [2] it was 30.6 µM; in [3] it was 26.4 µM; in assay [4] it was 24.3 µM; in assay [5] it was 23.4 µM; in assay [6], 22.6 µM. In addition, in assay [7], the TGI stood at 60.9 µM.

For the molecule `NCCCCNc1ccc2c(=O)[nH][nH]c(=O)c2c1`, the TGI in assay [1], in assay [2], in [3], in [4], in [5] and in assay [7] was above 100 µM throughout.

On to `CC[C@]1(O)C(=O)OCc2c1cc1n(c2=O)Cc2cc3c(N)cccc3nc2-1`, for which the TGI in assay [1], in [2], in assay [3], in assay [4], in [5] and in assay [6] was above 100 µM in each case. The TGI in assay [8] was above 100 µM.

Regarding `OC1(c2ccccc2)OC(C#Cc2ccccc2)(c2ccccc2)c2ccccc21` (stereo not drawn), the TGI in assay [1] was found to be 11.2 µM; in assay [2] it was 9.01 µM; in [3] it was 12.1 µM; in assay [4], 13.6 µM; in [5], 19.2 µM; in assay [6], 13.3 µM. Besides, the TGI turned out to be 23.2 µM in [7] and 19.8 µM in assay [8].

With `CN1CC[C@]2(C)c3ccc(O)cc3CC3CCCC1C32C` (stereo partly drawn), the TGI in assay [1], in [2], in assay [4], in [5], in assay [6] and in assay [7] was above 100 µM each time. Also, the TGI in assay [8] was above 100 µM.

For `COC(=O)c1nc(Cl)nc(Cl)c1Cl`, the TGI in assay [9] amounted to 76.8 µM.

As for `C/C=C/C=C/C=C/C=C/C(=O)O`, the TGI in assay [1], in [2], in [3], in assay [4], in assay [5] and in assay [6] was above 100 µM throughout. In [7], this molecule came in with a TGI above 100 µM.

Take `Cc1ccc(-c2cc(-c3ccccc3)c(C#N)c(=O)n2C2OC(CO)C(O)C(O)C2O)cc1` (stereo not drawn): the TGI in [1], in assay [2], in assay [3], in assay [4], in assay [5] and in assay [6] was above 100 µM each time. The molecule further registered a TGI in [7] above 100 µM.

Turning to `O=[N+]([O-])c1cnn(C2=CNc3ccccc3N=C2)c1`, the TGI in [1], in [3], in [4], in assay [6], in assay [7] and in assay [8] was above 100 µM in each case.

In the case of `CCC1=NC(CO)[C@H](c2ccccc2)O1` (stereo partly drawn), the TGI in assay [1], in assay [2], in [3], in assay [4], in assay [7] and in assay [8] was above 100 µM throughout.

`N.N.N.N.O=C([O-])C(Cl)Cl.O=C([O-])C(Cl)Cl.[Co+3].[O-][Cl+3]([O-])([O-])[O-]`: the GI50 in assay [1], in [3], in assay [4], in assay [5] and in assay [7] was above 100 µM in each case. Besides, the TGI in [1], in assay [3], in [4], in assay [5] and in [7] was above 100 µM throughout.

As to `N#CCCN(CCC#N)c1ccc(C(Sc2ccccc2)C(NC(=O)c2cc([N+](=O)[O-])ccc2Cl)C(=O)Sc2ccccc2)cc1` (stereo not drawn), the GI50 in assay [1] is 1.8 µM; in [2] it was 1.34 µM; in assay [5], 1.63 µM; in [6] it was 1.53 µM; in assay [7] it was 2.97 µM. The TGI in [1] was 9.43 µM and 4.58 µM; in assay [2], 7.78 µM and 4.1 µM; in assay [3], 5.15 µM; in [4] it was 6.47 µM and 11.3 µM; in [5], 11.9 µM; in assay [6], 4.01 µM. The TGI was determined as 34.5 µM in assay [7] and 21.3 µM in assay [8].

As for `COC1C2C=CC(C2)[C@H]1[N+](=O)[O-]` (stereo partly drawn), the TGI in assay [1], in assay [2], in assay [3], in assay [4], in [5] and in assay [6] was above 100 µM each time. Moreover, in [7], the TGI is above 100 µM.

As for `Cc1cccc(-n2c(=S)[nH]c3c(sc(=O)n3-c3ccccc3C)c2=O)c1`, the TGI in assay [1], in assay [2], in [3], in [4], in assay [5] and in assay [6] was above 100 µM each time. This molecule registered a TGI in [7] above 100 µM.
